From publication PMC6727405, “Variation in the metabolites and α-glucosidase inhibitory activity of Cosmos caudatus at different growth stages” (BMC Complementary and Alternative Medicine, 2019)

Target: T1, α-glucosidase type 1 from S. cerevisiae (Sigma G5003)
T1 construct: gene MAL12; commercial enzyme preparation from yeast (Sigma-Aldrich)
Experiment: 4-nitrophenyl alpha-D-glucopyranoside hydrolysis, absorbance […] nm
Type: biochemical, Saccharomyces cerevisiae
Conditions: PNPG substrate; phosphate buffer pH 6.5; room temperature; 5 min preincubation; positive control

α-glucosidase inhibitory activity, IC50 (μg mL^- 1): 110.50 ± 4.30 µg/mL
Compound: O=c1c(O)c(-c2ccc(O)c(O)c2)oc2cc(O)cc(O)c12 [Quercetin]
